Read-outs that look alike come from different tables or passages of the source.
Columns and labels:
mGluR2 = mGluR2 (Homo sapiens, UniProt Q14416); conditions: read-out: IC50 against mGluR2; cited from earlier work
mGluR3 = mGluR3 (Homo sapiens, UniProt Q14832); conditions: read-out: IC50 against mGluR3; cited from earlier work
[1] = tested on: Group I or Group III receptors; conditions: at sub-mM concentrations; cited from earlier work
[2] = tested on: KA, AMPA, and NMDA iGlu receptors; conditions: cited from earlier work
human mGlu3 receptors = human mGlu3 receptors (Homo sapiens, UniProt Q14832); conditions: low nanomolar range; read-out: EC50 against human mGlu3 receptors in vitro; cited from earlier work
human mGlu2 receptors = human mGlu2 receptors (Homo sapiens, UniProt Q14416); conditions: low nanomolar range; read-out: EC50 against human mGlu2 receptors in vitro; cited from earlier work
[3] = tested on: Human neural stem cells (hNSCs); assay: Neuronal differentiation of human neural stem cells (TUJ-1 staining); type: cell-based; conditions: for maximum neuronal differentiation percent of positive control: basal media values subtracted, 0.01 μM to 31.6 μM
Protocol: Mitogen-free test media with a positive control for neuronal differentiation was used along with basal media without growth factors as a negative control.
The presence of synergy was determined by use of a combination index (CI). […] The CI is a quantitative measure of the nature of drug interactions, comparing the EC50's of two compounds, when each is assayed alone, to the EC50 of each compound when assayed in combination. The combination index (CI) is equal to the following formula: […]
where C1 and C2 are the concentrations of a first and a second compound, respectively, resulting in 50% activity in neuronal differentiation when assayed in combination; and IC1 and IC2 are the concentrations of each compound resulting in 50% activity when assayed independently.

[4] = tested on: Human neural stem cells (hNSCs); assay: Astrocyte differentiation of human neural stem cells (GFAP staining); type: cell-based
[5] = Homo sapiens, Neural stem cell, agent alone, concentration response curve 0.01 μM to 31.6 μM (antalarmin to 3.16 μM), modafinil batch of FIG. 1-3, read-out: EC50, neuronal differentiation, agent used alone
[6] = Homo sapiens, Neural stem cell, read-out: EC50, neuronal differentiation, agent alone (FIG. 8 experiment)

Sequence of mGluR2 (Q14416 19-872): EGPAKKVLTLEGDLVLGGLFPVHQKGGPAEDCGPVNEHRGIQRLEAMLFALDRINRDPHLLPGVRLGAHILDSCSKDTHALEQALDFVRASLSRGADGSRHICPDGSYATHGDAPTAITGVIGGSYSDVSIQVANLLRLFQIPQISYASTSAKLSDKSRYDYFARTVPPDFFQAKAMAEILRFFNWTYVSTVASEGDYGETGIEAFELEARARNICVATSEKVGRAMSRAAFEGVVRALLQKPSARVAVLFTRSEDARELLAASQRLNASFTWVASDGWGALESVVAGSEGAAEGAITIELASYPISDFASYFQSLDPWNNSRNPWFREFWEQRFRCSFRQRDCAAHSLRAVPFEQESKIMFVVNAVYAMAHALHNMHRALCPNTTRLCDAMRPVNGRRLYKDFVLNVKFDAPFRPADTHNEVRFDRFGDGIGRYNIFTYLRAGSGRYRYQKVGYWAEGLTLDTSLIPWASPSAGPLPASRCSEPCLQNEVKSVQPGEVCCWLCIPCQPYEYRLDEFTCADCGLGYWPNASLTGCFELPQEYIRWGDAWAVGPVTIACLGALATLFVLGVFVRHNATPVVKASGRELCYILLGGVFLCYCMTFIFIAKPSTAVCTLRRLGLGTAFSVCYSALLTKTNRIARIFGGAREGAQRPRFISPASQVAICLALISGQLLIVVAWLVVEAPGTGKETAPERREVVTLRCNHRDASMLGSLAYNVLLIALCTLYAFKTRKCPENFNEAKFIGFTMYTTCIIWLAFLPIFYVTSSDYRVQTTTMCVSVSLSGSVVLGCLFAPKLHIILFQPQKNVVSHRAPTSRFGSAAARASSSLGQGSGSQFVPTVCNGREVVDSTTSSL
Sequence of human mGlu2 receptors (Q14416 19-872): as above
Sequence of human mGlu3 receptors (Q14832 23-879): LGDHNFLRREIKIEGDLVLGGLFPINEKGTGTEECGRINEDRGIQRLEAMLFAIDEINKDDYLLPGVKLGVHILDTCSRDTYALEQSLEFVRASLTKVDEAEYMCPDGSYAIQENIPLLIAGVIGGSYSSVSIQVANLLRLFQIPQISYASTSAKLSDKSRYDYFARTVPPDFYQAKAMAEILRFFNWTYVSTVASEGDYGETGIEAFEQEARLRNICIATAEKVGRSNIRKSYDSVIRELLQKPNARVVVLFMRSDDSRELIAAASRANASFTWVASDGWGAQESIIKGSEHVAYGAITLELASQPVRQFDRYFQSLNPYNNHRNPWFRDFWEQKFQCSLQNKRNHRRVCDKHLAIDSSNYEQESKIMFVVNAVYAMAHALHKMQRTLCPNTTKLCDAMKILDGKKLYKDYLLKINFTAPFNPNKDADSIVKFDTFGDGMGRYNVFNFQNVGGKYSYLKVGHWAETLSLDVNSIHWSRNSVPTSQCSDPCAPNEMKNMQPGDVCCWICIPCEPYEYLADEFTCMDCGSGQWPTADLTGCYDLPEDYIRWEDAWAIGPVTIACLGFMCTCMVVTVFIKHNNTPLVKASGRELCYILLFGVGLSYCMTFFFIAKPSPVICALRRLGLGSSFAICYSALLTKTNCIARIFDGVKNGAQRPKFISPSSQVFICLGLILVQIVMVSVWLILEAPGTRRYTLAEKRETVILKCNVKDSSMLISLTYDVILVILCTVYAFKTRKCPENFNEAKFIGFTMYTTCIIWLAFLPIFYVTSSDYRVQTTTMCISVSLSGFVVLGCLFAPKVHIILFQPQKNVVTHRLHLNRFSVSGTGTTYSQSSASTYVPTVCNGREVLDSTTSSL
Sequence of mGluR3 (Q14832 23-879): as above

## NC1(C(=O)O)CCc2cc(P(=O)(O)O)ccc21 (racemic) [APICA, (RS)-1-amino-5-phosphonoindan-1-carboxylic acid]
mGluR2
  IC50: ~30 µM
mGluR3
  IC50: ~30 µM
[1]
  activity against Group I or Group III receptors: no appreciable activity

## N[C@](CC1c2ccccc2Oc2ccccc21)(C(=O)O)[C@H]1C[C@@H]1C(=O)O [LY341495, (2S)-2-amino-2-(1S,2S-2-carboxycycloprop-1-yl)-3-(xanth-9-yl) propanoic acid]
[2]
  activity against KA, AMPA, and NMDA iGlu receptors: substantially inactive

## N[C@@]1(C(=O)O)CO[C@H]2[C@H](C(=O)O)[C@H]21 [LY379268, (−)-2-Oxa-4-aminobicyclohexane-4,6-dicarboxylic acid]
Human mGlu3 receptors
  EC50: < 0.01 µM
Human mGlu2 receptors
  EC50: < 0.01 µM

## Cc1oc2nc3c(c(NC(=O)CN4CCCC4=O)c2c1C)CCCC3 [MKC-231]
[3]; agent alone, concentration response curve 0.01 μM to 31.6 μM (antalarmin to 3.16 μM), modafinil batch of FIG. 1-3, read-out: EC50, neuronal differentiation, agent used alone
  EC50: 3.9 µM
[3]
  maximum neuronal differentiation percent of positive control: 53%

## CC(=O)NCCCS(=O)(=O)O [acamprosate]
[3]; [5]
  EC50: ~39.2 µM

## CCCCN(CC)c1nc(C)nc2c1c(C)c(C)n2-c1c(C)cc(C)cc1C [antalarmin]
[3]; [5]
  EC50: ~34.9 µM

## NC(=O)C[S@@+]([O-])C(c1ccccc1)c1ccccc1 [armodafinil, (−)-2-[(R)-(diphenylmethyl)-sulfinyl]acetamide]
[3]; [6]
  EC50: ~1.24 µM

## CN1C(=O)COc2c(C(=O)NC3CN4CCC3CC4)cc(Cl)cc21 (stereo not shown) [azasetron]
[3]; [5]
  EC50: ~9.1 µM

## O=C1CC2(CCCC2)CC(=O)N1CCCCN1CCN(c2ncccn2)CC1 [buspirone]
[4]; basal media values subtracted, 0.01 μM to 31.6 μM
  maximum astrocyte differentiation percent of positive control: 59%
[3]; [5]
  EC50: 8.4 µM
[3]
  maximum neuronal differentiation percent of positive control: 52%

## NC(=O)C[S+]([O-])C(c1ccccc1)c1ccccc1 (stereo not shown) [modafinil, 2-benzhydrylsulfinylethanamide]
[4]; modafinil alone
  astrogenesis produced: little or no astrogenesis
[3]; [6]
  EC50: 1.93 µM
[3]; Homo sapiens, Neural stem cell, read-out: EC50, neuronal differentiation, agent used alone
  EC50: > 31.6 µM
[3]; Homo sapiens, Neural stem cell, read-out: EC50, neuronal differentiation, modafinil alone (batch 2)
  EC50: 2.9 µM
[3]; Homo sapiens, Neural stem cell, read-out: EC50 of modafinil alone, estimated based on extrapolation
  EC50: ~83 µM
[3]
  maximum neuronal differentiation percent of positive control: 19%

## NCCc1c[nH]c2ccc(O)cc12 [serotonin, 5-hydroxytryptamine]
[3]; [5]
  EC50: ~6.9 µM
